Experimental data: US5041460A, “Heter-aliphatic carboxamides” (ICI Americas Inc., priority 1989, dated 1991)

Target: T1, LTD4 /E4 receptors (Cavia porcellus, UniProt Q2NNR5)
T1 construct: membrane fractions, containing the LTD4 /E4 receptors, are prepared from guinea-pig lung parenchyma; from tissue; host or cells: guinea-pig lung parenchyma membrane fractions
T1 sequence (Q2NNR5 1-340): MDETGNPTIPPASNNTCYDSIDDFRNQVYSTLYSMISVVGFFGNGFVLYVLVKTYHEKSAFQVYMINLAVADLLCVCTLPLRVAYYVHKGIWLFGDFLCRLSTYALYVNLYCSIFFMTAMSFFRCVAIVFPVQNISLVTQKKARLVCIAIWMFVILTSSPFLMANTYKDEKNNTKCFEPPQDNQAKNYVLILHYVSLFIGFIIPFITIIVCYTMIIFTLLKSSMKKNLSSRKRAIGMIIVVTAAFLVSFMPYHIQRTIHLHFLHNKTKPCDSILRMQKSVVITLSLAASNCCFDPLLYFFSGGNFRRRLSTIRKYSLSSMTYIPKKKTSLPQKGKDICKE
Experiment: receptor-ligand binding assay, 3H-LTD4 on guinea-pig lung parenchyma membrane fractions
Details: 1 nM 3H-LTD4, 30 minutes at 22° C.; Ki calculated from IC50 by the Cheng-Prusoff equation
Description: According to this procedure, membrane fractions, containing the LTD4 /E4 receptors, are prepared from guinea-pig lung parenchyma and incubated for 30 minutes at 22° C. with 1 nM ^3 H-LTD4 in the absence or presence of tested antagonist. Specific binding, determined under conditions that prevent enzymatic metabolism of ^3 H-LTD4, is the net result of total ^3 H-LTD4 binding minus nonspecific binding determined in the presence of […] excess unlabelled LTD4. Each assay is done in duplicate and results (Ki values) are typically a mean of several such determinations in individual receptor batches.
The % inhibition by a tested antagonist, relative to control binding (vehicle alone), is expressed as a […] of log[antagonist] concentration (in molar units) and the half-maximal inhibition (IC50) determined by computerized non-linear least-square analysis. The binding constant (Ki) is then calculated from IC50 by the Cheng-Prusoff equation: [formula] where [L] is ^3 H-LTD4 concentration and Kd is the affinity constant of LTD4 to this receptor, determined separately for each batch. (Biochem. Pharmacol. 22: 3099-3108, 1973).

Ki: 1 nM
Structure (SMILES): COc1cc(C(=O)NS(=O)(=O)c2ccccc2C)ccc1Cc1cn(C)c2ccc(CCNC(=O)N(C)C)cc12 [Example 4, 4-[5-[2-(N',N'-Dimethylureido)ethyl]-1-methylindol-3-ylmethyl]-3-methoxy-N-(2-methylphenylsulfonyl)benzamide]
